Results reported in PubChem BioAssay AID2060883 (Molecular Pharmacology Branch, DTP, NCI, 2025).
pIC50: −log10 of the molar value.

Test system: 843782-103-R-J1-PDC complex spheroid viability
Assay: Anticancer human tumor 843782-103-R-J1-PDC patient-derived lung adenocarcinoma cell line growth inhibition [RAS]
Conditions: for pIC50: curve of first compound; for viability, T/C: stronger effect = lower value
Method in brief: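 Multi-cell-type spheroids: tumor cells plus HUVEC endothelial cells and mesenchymal stem cells. RAS-pathway inhibitors were combined with targeted agents, each dosed in half-log steps down from clinical Cmax, or from 10 microM when Cmax was unknown.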

[1] = second compound 0.0316 µM, first compound 0.000949 µM
[2] = second compound 0.0316 µM, first compound 0.003 µM
[3] = second compound 0.0316 µM, first compound 0.00949 µM
[4] = second compound 0.0316 µM, first compound 0.03 µM
[5] = second compound 0.0316 µM, first compound 0.0949 µM
[6] = second compound 0.0316 µM, first compound 0.3 µM
[7] = second compound 0.1 µM, first compound 0.000949 µM
[8] = second compound 0.1 µM, first compound 0.003 µM
[9] = second compound 0.1 µM, first compound 0.00949 µM
[10] = second compound 0.1 µM, first compound 0.03 µM
[11] = second compound 0.1 µM, first compound 0.0949 µM
[12] = second compound 0.1 µM, first compound 0.3 µM
[13] = second compound 0.316 µM, first compound 0.000949 µM
[14] = second compound 0.316 µM, first compound 0.003 µM
[15] = second compound 0.316 µM, first compound 0.00949 µM
[16] = second compound 0.316 µM, first compound 0.03 µM
[17] = second compound 0.316 µM, first compound 0.0949 µM
[18] = second compound 0.316 µM, first compound 0.3 µM
[19] = second compound 1 µM, first compound 0.000949 µM
[20] = second compound 1 µM, first compound 0.003 µM
[21] = second compound 1 µM, first compound 0.00949 µM
[22] = second compound 1 µM, first compound 0.03 µM
[23] = second compound 1 µM, first compound 0.0949 µM
[24] = second compound 1 µM, first compound 0.3 µM
[25] = second compound 3.16 µM, first compound 0.000949 µM
[26] = second compound 3.16 µM, first compound 0.003 µM
[27] = second compound 3.16 µM, first compound 0.00949 µM
[28] = second compound 3.16 µM, first compound 0.03 µM
[29] = second compound 3.16 µM, first compound 0.0949 µM
[30] = second compound 3.16 µM, first compound 0.3 µM
[31] = second compound 10 µM, first compound 0.000949 µM
[32] = second compound 10 µM, first compound 0.003 µM
[33] = second compound 10 µM, first compound 0.00949 µM
[34] = second compound 10 µM, first compound 0.03 µM
[35] = second compound 10 µM, first compound 0.0949 µM
[36] = second compound 10 µM, first compound 0.3 µM
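Also: viability read after seven days of compound exposure.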

CC1(C)CCC(Nc2ncc(C(F)(F)F)c(-c3c[nH]c4c(P(C)(C)=O)c(C#N)ccc34)n2)CN1 (centres undefined) + C#Cc1c(F)ccc2cc(O)cc(-c3ncc4c(N5CC6CCC(C5)N6)nc(OCC56CCCN5CC(F)C6)nc4c3F)c12
pIC50 (second compound 0.0316 µM): 7.65
pIC50 (second compound 0.1 µM): 7.76
pIC50 (second compound 0.316 µM): 7.70
pIC50 (second compound 1 µM): 8.10
pIC50 (second compound 3.16 µM): 8.25
pIC50 (second compound 10 µM): 9.02
viability, T/C [1]: 102%
viability, T/C [2]: 93.6%
viability, T/C [3]: 72.1%
viability, T/C [4]: 44.9%
viability, T/C [5]: 21.1%
viability, T/C [6]: 22.7%
viability, T/C [7]: 103%
viability, T/C [8]: 88.1%
viability, T/C [9]: 58.6%
viability, T/C [10]: 42.5%
viability, T/C [11]: 26.8%
viability, T/C [12]: 23.1%
viability, T/C [13]: 101%
viability, T/C [14]: 76.2%
viability, T/C [15]: 58.1%
viability, T/C [16]: 51.5%
viability, T/C [17]: 25.6%
viability, T/C [18]: 24.6%
viability, T/C [19]: 88.5%
viability, T/C [20]: 69%
viability, T/C [21]: 46.2%
viability, T/C [22]: 30.9%
viability, T/C [23]: 26.4%
viability, T/C [24]: 20.5%
viability, T/C [25]: 61%
viability, T/C [26]: 57.4%
viability, T/C [27]: 44%
viability, T/C [28]: 29.2%
viability, T/C [29]: 24.9%
viability, T/C [30]: 24.6%
viability, T/C [31]: 46.6%
viability, T/C [32]: 44.9%
viability, T/C [33]: 37.4%
viability, T/C [34]: 59.2%
viability, T/C [35]: 26%
viability, T/C [36]: 21.8%

CCc1c2c(nc3ccc(O)cc13)-c1cc3c(c(=O)n1C2)COC(=O)[C@]3(O)CC + C#Cc1c(F)ccc2cc(O)cc(-c3ncc4c(N5CC6CCC(C5)N6)nc(OCC56CCCN5CC(F)C6)nc4c3F)c12
pIC50 (second compound 0.0316 µM): 8.72
pIC50 (second compound 0.1 µM): 8.70
pIC50 (second compound 0.316 µM): 8.71
pIC50 (second compound 1 µM): 8.72
pIC50 (second compound 3.16 µM): 8.79
pIC50 (second compound 10 µM): > 9.02
viability, T/C [1]: 103%
viability, T/C [2]: 15.3%
viability, T/C [3]: 8.79%
viability, T/C [4]: 2.87%
viability, T/C [5]: 1.58%
viability, T/C [6]: 0.53%
viability, T/C [7]: 104%
viability, T/C [8]: 19.6%
viability, T/C [9]: 8.39%
viability, T/C [10]: 4.21%
viability, T/C [11]: 1.08%
viability, T/C [12]: 0.68%
viability, T/C [13]: 96.8%
viability, T/C [14]: 20.8%
viability, T/C [15]: 8.99%
viability, T/C [16]: 3.62%
viability, T/C [17]: 1.15%
viability, T/C [18]: 0.74%
viability, T/C [19]: 85.5%
viability, T/C [20]: 26.8%
viability, T/C [21]: 7.99%
viability, T/C [22]: 3.68%
viability, T/C [23]: 1.44%
viability, T/C [24]: 0.87%
viability, T/C [25]: 73.4%
viability, T/C [26]: 21.8%
viability, T/C [27]: 10.4%
viability, T/C [28]: 4.24%
viability, T/C [29]: 1.56%
viability, T/C [30]: 0.77%
viability, T/C [31]: 42.2%
viability, T/C [32]: 12.1%
viability, T/C [33]: 9.81%
viability, T/C [34]: 3.11%
viability, T/C [35]: 1.08%
viability, T/C [36]: 0.39%
